Assay results reported in paper PMC10065799, “High-throughput profiling of sequence recognition by tyrosine kinases and SH2 domains using bacterial peptide display” (eLife, 2023).

Target: T1, c-Abl kinase domain (Mus musculus, UniProt P00520)
T1 sequence (P00520 242-493 limits assumed): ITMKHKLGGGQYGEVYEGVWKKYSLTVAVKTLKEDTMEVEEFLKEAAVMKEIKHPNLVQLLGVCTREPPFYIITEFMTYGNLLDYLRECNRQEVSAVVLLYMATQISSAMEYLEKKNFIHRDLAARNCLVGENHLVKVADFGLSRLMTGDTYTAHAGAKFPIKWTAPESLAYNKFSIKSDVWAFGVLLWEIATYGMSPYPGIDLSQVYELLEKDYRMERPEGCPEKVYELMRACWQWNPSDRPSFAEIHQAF
Experiment: pTyr-Var library bacterial peptide display kinase screen (enrichment scores)
Assay type: biochemical
Conditions: variant versus reference peptide

Row | Sequence | c-Abl difference (mean log2 variant - mean log2 reference)
1 | ATVQNYLPKCI [A2M_Y817_L815Q] | -0.04049
2 | LHVGFYESDVM [A2M_Y708_R704H] | -1.318
